The text below walks through data of patent US12404295B2, “(Hetero)aryl-methyl-thio-beta-D-galactopyranoside derivatives” (Idorsia Pharmaceuticals Ltd, priority 2019, dated 2025).

Assay [1] has as its target human Gal-3 (hGal-3) (Homo sapiens (Human), UniProt P17931). The assay is described as follows: competitive binding assay: biotinylated hGal-3 binding to microplate-adsorbed asialofetuin (ASF). A digest of the protocol: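 Serial DMSO dilutions of each compound; binding incubation of 3 hours at 4 °C with cold-buffer washes; detection using 80 ng/mL streptavidin-peroxidase for 1 hour, then ABTS. Multiple determinations were averaged to give the IC50.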

Assay [2] deals with human Gal-1 (hGal-1) (Homo sapiens (Human), UniProt P09382). The assay is described as follows: competitive binding assay: biotinylated hGal-1 binding to microplate-adsorbed asialofetuin (ASF). Conditions: Table 15; read-out: IC50 (Galectin-1 inhibition). In outline: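 Spectrophotometric competition readout: after compound and biotinylated hGal-1 (300-1000 ng/mL) sit 3 h at 4° C on adsorbed asialofetuin, streptavidin-peroxidase (1 h, 4° C) and ABTS reveal residual binding. Reported IC50 values are means of repeat runs.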

[3] abbreviates: Gal-3 inhibition, binding of biotinylated hGal-3 to ASF, mean values, read-out: IC50.
[4] abbreviates: Table 5, read-out: IC50 (Gal-3 inhibition).
The mark [5] stands for this setting: Table 10, 2-OMe-Gal inhibitors, read-out: IC50 (Gal-3 inhibition).

Like-named read-outs stand apart in the source and are kept apart here.

As usually defined, the IC50 is the concentration that inhibits the measured activity by half.

Sequence of human Gal-3 (hGal-3) (P17931 whole entry): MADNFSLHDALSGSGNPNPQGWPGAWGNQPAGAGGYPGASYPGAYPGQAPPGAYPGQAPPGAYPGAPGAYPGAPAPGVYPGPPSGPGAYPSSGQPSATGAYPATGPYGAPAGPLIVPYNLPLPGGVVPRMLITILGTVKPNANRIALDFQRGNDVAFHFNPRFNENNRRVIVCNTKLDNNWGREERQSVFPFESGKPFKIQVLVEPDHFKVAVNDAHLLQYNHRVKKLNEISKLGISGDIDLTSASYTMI
Sequence of human Gal-1 (hGal-1) (P09382 whole entry): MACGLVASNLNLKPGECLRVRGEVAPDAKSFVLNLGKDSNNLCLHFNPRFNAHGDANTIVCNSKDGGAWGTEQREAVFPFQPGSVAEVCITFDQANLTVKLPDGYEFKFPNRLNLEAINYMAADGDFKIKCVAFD

Regarding `CS(=O)(=O)N1CCC(O)([C@H](S[C@@H]2O[C@H](CO)[C@H](O)[C@H](n3cc(-c4cc(F)c(F)c(F)c4)nn3)[C@H]2O)c2ccccc2C(F)(F)F)CC1` [Example 2.47.112R., (2S,3R,4S,5R,6R)-2-(((R)-(4-Hydroxy-1-(methylsulfonyl)piperidin-4-yl)(2-(trifluoromethyl)phenyl)methyl)thio)-6-(hydroxymethyl)-4-(4-(3,4,5-trifluorophenyl)-1H-1,2,3-triazol-1-yl)tetrahydro-2H-pyran-3,5-diol], the half-maximal inhibitory concentration (IC50) stood at 0.03 µM in assay [1] (setting [3]) and 0.12 µM in assay [2].

Take `CC(C)(O)[C@@H](S[C@@H]1O[C@H](CO)[C@H](O)[C@H](n2cc(-c3cc(F)c(F)c(F)c3)nn2)[C@H]1O)c1cccc2ccccc12` [Example 2.31.115S., (2S,3R,4S,5R,6R)-2-(((S)-2-Hydroxy-2-methyl-1-(naphthalen-1-yl)propyl)thio)-6-(hydroxymethyl)-4-(4-(3,4,5-trifluorophenyl)-1H-1,2,3-triazol-1-yl)tetrahydro-2H-pyran-3,5-diol]: the IC50 in assay [1] (setting [3]) was determined as 10.3 µM; in assay [2], 47.9 µM.

For the compound `Cc1conc1[C@H](S[C@@H]1O[C@H](CO)[C@H](O)[C@H](n2cc(-c3cc(F)c(F)c(F)c3)nn2)[C@H]1O)C1(O)CCC(F)(F)CC1` [Example 2.44.120S., (2S,3R,4S,5R,6R)-2-(((S)-(4,4-Difluoro-1-hydroxycyclohexyl)(4-methylisoxazol-3-yl)methyl)thio)-6-(hydroxymethyl)-4-(4-(3,4,5-trifluorophenyl)-1H-1,2,3-triazol-1-yl)tetrahydro-2H-pyran-3,5-diol], the IC50 in assay [1] (setting [4]) turned out to be 8.27 µM; in assay [2] it was 22.6 µM.

On to `CO[C@@H]1[C@@H](n2cc(-c3cc(F)c(F)c(F)c3)nn2)[C@@H](O)[C@@H](CO)O[C@H]1S[C@H](c1ncccc1C(F)(F)F)C1(O)CCCCC1` [Example 2.39.125R.I., (2R,3R,4S,5R,6S)-6-(((R)-(1-Hydroxycyclohexyl)(3-(trifluoromethyl)pyridin-2-yl)methyl)thio)-2-(hydroxymethyl)-5-methoxy-4-(4-(3,4,5-trifluorophenyl)-1H-1,2,3-triazol-1-yl)tetrahydro-2H-pyran-3-ol], for which the half-inhibitory concentration (IC50) in assay [1] (Table 9, 2-OMe-Gal inhibitors, read-out: IC50 (Gal-3 inhibition)) is 0.09 µM; in assay [2], 0.46 µM.

For `CO[C@@H]1[C@@H](n2cc(-c3cc(F)c(F)c(F)c3)nn2)[C@@H](O)[C@@H](CO)O[C@H]1S[C@@H](c1nccc(Cl)c1C)C1(O)CCC(F)(F)CC1` [Example 2.44.141S.I., (2R,3R,4S,5R,6S)-6-(((S)-(4-Chloro-3-methylpyridin-2-yl)(4,4-difluoro-1-hydroxycyclohexyl)methyl)thio)-2-(hydroxymethyl)-5-methoxy-4-(4-(3,4,5-trifluorophenyl)-1H-1,2,3-triazol-1-yl)tetrahydro-2H-pyran-3-ol], the IC50 came out at 3.5 µM in assay [1] (Table 11, read-out: IC50 (Gal-3 inhibition)) and 10.5 µM in assay [2].

Consider `CC(C)(O)C(S[C@@H]1O[C@H](CO)[C@H](O)[C@H](n2cc(-c3cc(F)c(F)c(F)c3)nn2)[C@H]1O)c1cccc(Cl)c1Cl` (stereo partly drawn) [Example 2.31.113., (2S,3R,4S,5R,6R)-2-((1-(2,3-Dichlorophenyl)-2-hydroxy-2-methylpropyl)thio)-6-(hydroxymethyl)-4-(4-(3,4,5-trifluorophenyl)-1H-1,2,3-triazol-1-yl)tetrahydro-2H-pyran-3,5-diol], for which the IC50 in assay [1] (setting [3]) is 0.46 µM; in assay [2] it was 3.75 µM.

Regarding `Cc1cccnc1[C@@H](S[C@@H]1O[C@H](CO)[C@H](O)[C@H](n2cc(-c3cc(F)c(F)c(F)c3)nn2)[C@H]1O)C1(O)CCS(=O)(=O)CC1` [Example 2.66.126R., 4-((R)-(((2S,3R,4S,5R,6R)-3,5-Dihydroxy-6-(hydroxymethyl)-4-(4-(3,4,5-trifluorophenyl)-1H-1,2,3-triazol-1-yl)tetrahydro-2H-pyran-2-yl)thio)(3-methylpyridin-2-yl)methyl)-4-hydroxytetrahydro-2H-thiopyran 1,1-dioxide], the IC50 in assay [1] (setting [3]) is 0.02 µM; in assay [2] it was 0.17 µM.

For the compound `Cc1cccnc1[C@@H](S[C@@H]1O[C@H](CO)[C@H](O)[C@H](n2cc(-c3cc(F)c(F)c(F)c3)nn2)[C@H]1O)C1(O)CCC(F)(F)CC1` [Example 2.44.126R., (2S,3R,4S,5R,6R)-2-(((R)-(4,4-Difluoro-1-hydroxycyclohexyl)(3-methylpyridin-2-yl)methyl)thio)-6-(hydroxymethyl)-4-(4-(3,4,5-trifluorophenyl)-1H-1,2,3-triazol-1-yl)tetrahydro-2H-pyran-3,5-diol], the IC50 was 0.04 µM in assay [1] (setting [3]) and 0.3 µM in assay [2].

For the compound `OC[C@H]1O[C@@H](S[C@@H](c2ncccc2C(F)(F)F)C2(O)CCC(F)(F)CC2)[C@H](O)[C@@H](n2cc(-c3cc(F)c(F)c(F)c3)nn2)[C@H]1O` [Example 2.44.125S., (2S,3R,4S,5R,6R)-2-(((S)-(4,4-Difluoro-1-hydroxycyclohexyl)(3-(trifluoromethyl)pyridin-2-yl)methyl)thio)-6-(hydroxymethyl)-4-(4-(3,4,5-trifluorophenyl)-1H-1,2,3-triazol-1-yl)tetrahydro-2H-pyran-3,5-diol], the figures for the IC50 in assay [1] (setting [4]) and in assay [2] were 0.82 µM and 3.41 µM, respectively.

`CO[C@@H]1[C@@H](n2cc(-c3cc(F)c(F)c(F)c3)nn2)[C@@H](O)[C@@H](CO)O[C@H]1S[C@H](c1nocc1C)C1(O)CCS(=O)(=O)CC1` [Example 2.66.120R.I., 4-Hydroxy-4-((R)-(((2S,3R,4S,5R,6R)-5-hydroxy-6-(hydroxymethyl)-3-methoxy-4-(4-(3,4,5-trifluorophenyl)-1H-1,2,3-triazol-1-yl)tetrahydro-2H-pyran-2-yl)thio)(4-methylisoxazol-3-yl)methyl)tetrahydro-2H-thiopyran 1,1-dioxide]: the figures for the half-maximal inhibitory concentration (IC50) in assay [1] (setting [5]) and in assay [2] were 0.07 µM and 0.58 µM, respectively.

In the case of `CC(C)(O)[C@H](S[C@@H]1O[C@H](CO)[C@H](O)[C@H](n2cc(-c3cc(F)c(F)c(F)c3)nn2)[C@H]1O)c1ccccc1C(F)(F)F` [Example 2.31.112R., (2S,3R,4S,5R,6R)-2-(((R)-2-Hydroxy-2-methyl-1-(2-(trifluoromethyl)phenyl)propyl)thio)-6-(hydroxymethyl)-4-(4-(3,4,5-trifluorophenyl)-1H-1,2,3-triazol-1-yl)tetrahydro-2H-pyran-3,5-diol], the half-inhibitory concentration (IC50) worked out at 0.29 µM in assay [1] (setting [3]) and 2.61 µM in assay [2].

Take `CCc1c([C@@H](S[C@@H]2O[C@H](CO)[C@H](O)[C@H](n3cc(-c4cc(F)c(F)c(F)c4)nn3)[C@H]2OC)C2(O)CCC(F)(F)CC2)noc1C1CC1` [Example 2.44.130R.I.]: the half-maximal inhibitory concentration (IC50) in assay [1] (setting [5]) came to 0.06 µM; in assay [2], 0.16 µM.

Regarding `CO[C@@H]1[C@@H](n2cc(-c3cc(F)c(F)c(F)c3)nn2)[C@@H](O)[C@@H](CO)O[C@H]1SC(c1c(C)cnn1C)C1(O)CCC(F)(F)CC1` (stereo partly drawn) [Example 2.44.136.I., (2R,3R,4S,5R,6S)-6-(((4,4-Difluoro-1-hydroxycyclohexyl)(1,4-dimethyl-1H-pyrazol-5-yl)methyl)thio)-2-(hydroxymethyl)-5-methoxy-4-(4-(3,4,5-trifluorophenyl)-1H-1,2,3-triazol-1-yl)tetrahydro-2H-pyran-3-ol], the IC50 in assay [1] (setting [5]) was found to be 0.42 µM; in assay [2], 2.53 µM.

Take `CC(C)(O)C(S[C@@H]1O[C@H](CO)[C@H](O)[C@H](n2cc(-c3cc(F)c(F)c(F)c3)nn2)[C@H]1O)c1cccc2ccccc12` (stereo partly drawn) [Example 2.31.115., (2S,3R,4S,5R,6R)-2-((2-Hydroxy-2-methyl-1-(naphthalen-1-yl)propyl)thio)-6-(hydroxymethyl)-4-(4-(3,4,5-trifluorophenyl)-1H-1,2,3-triazol-1-yl)tetrahydro-2H-pyran-3,5-diol]: the IC50 in assay [1] (setting [3]) is 0.18 µM; in assay [2] it was 1.39 µM.

On to `CC(C)(O)[C@@H](S[C@@H]1O[C@H](CO)[C@H](O)[C@H](n2cc(-c3cc(F)c(F)c(F)c3)nn2)[C@H]1O)c1ccccc1CCO` [Example 2.31.108S., (2S,3R,4S,5R,6R)-2-(((S)-2-Hydroxy-1-(2-(2-hydroxyethyl)phenyl)-2-methylpropyl)thio)-6-(hydroxymethyl)-4-(4-(3,4,5-trifluorophenyl)-1H-1,2,3-triazol-1-yl)tetrahydro-2H-pyran-3,5-diol], for which the half-maximal inhibitory concentration (IC50) in assay [1] (setting [3]) was found to be 8.1 µM; in assay [2], 25.8 µM.

With `CO[C@@H]1[C@@H](n2cc(-c3cc(F)c(F)c(F)c3)nn2)[C@@H](O)[C@@H](CO)O[C@H]1S[C@H](c1ccccc1C(C)C)C1(O)CCC(F)(F)CC1` [Example 2.44.105R.I., (2R,3R,4S,5R,6S)-6-(((R)-(4,4-Difluoro-1-hydroxycyclohexyl)(2-isopropylphenyl)methyl)thio)-2-(hydroxymethyl)-5-methoxy-4-(4-(3,4,5-trifluorophenyl)-1H-1,2,3-triazol-1-yl)tetrahydro-2H-pyran-3-ol], the IC50 was found to be 0.32 µM in assay [1] (setting [5]) and 0.15 µM in assay [2].

As for `Cc1ccccc1[C@H](S[C@@H]1O[C@H](CO)[C@H](O)[C@H](n2cc(-c3cc(F)c(F)c(F)c3)nn2)[C@H]1O)C1(O)CC(C)C1` (stereo partly drawn) [Example 2.36.102S., (2S,3R,4S,5R,6R)-2-(((1S)-(1-Hydroxy-3-methylcyclobutyl)(o-tolyl)methyl)thio)-6-(hydroxymethyl)-4-(4-(3,4,5-trifluorophenyl)-1H-1,2,3-triazol-1-yl)tetrahydro-2H-pyran-3,5-diol], the concentration for half-maximal inhibition (IC50) in assay [1] (setting [4]) amounted to 7.2 µM; in assay [2], 54.2 µM.

In the case of “(2S,3R,4S,5R,6R)-2-(((S)-((R)-4-Hydroxy-2,2-dimethyltetrahydro-2H-pyran-4-yl)(2-(trifluoromethyl)phenyl)methyl)thio)-6-(hydroxymethyl)-4-(4-(3,4,5-trifluorophenyl)-1H-1,2,3-triazol-1-yl)tetrahydro-2H-pyran-3,5-diol [Example 2.43.102SR.]”, the IC50 in assay [1] (setting [4]) was found to be 3.9 µM; in assay [2], 55 µM.
